Experimental data reported in patent US9572813B2, “Antiviral agent” (SHIONOGI & CO., LTD., priority 2001, dated 2017).

What was measured:
integrase = integrase (Human immunodeficiency virus type 1 group M subtype B, UniProt P04585); test: Integrase inhibition assay (microtiter plate strand transfer, substrate DNA/target DNA, anti-digoxigenin ELISA); type: biochemical; settings: concentration of the compound at percent inhibition 50%; 30° C. for 1 hour; OD at 405 nm; read-out: IC50 (converted)
Procedure: The inhibitory activities against integrase of the compounds in the present invention have been determined by the assay described below.
(1) Preparation of DNA Solutions.
Substrate DNA and target DNA, which sequences were indicated below, were synthesized by Amersham Pharmacia Biotech and dissolved in KTE buffer (composition: 100 mM KCl, 1 mM EDTA, 10 mM Tris-HCl (pH 7.6)) at concentration of 2 pmol/μl and 0.5 pmol/μl, respectively. The DNA solutions were annealed with each complement by slowly cooling after heating.
(2) Calculations of the Percent Inhibitions (the IC50 Values of Test Compounds)
Streptavidin, obtained from Vector Laboratories, was dissolved in 0.1 M carbonate buffer (composition: 90 mM Na2CO3, 10 mM NaHCO3) at concentration of 40 µg/ml. After coating each well of microtiter plates (obtained from NUNC) with 50 μL of the above solution at 4° C. over night, each well was washed twice with PBS (composition: 13.7 mM NaCl, 0.27 mM KCl, 0.43 mM Na2HPO4, 0.14 mM KH2PO4) and blocked with 300 μl of 1% skim milk in PBS for 30 min. Additionally, each well was washed twice with PBS and added 50 μl of substrate DNA solution (0.04 pmol/μl) diluted to one fiftieth with NTE buffer (composition: 1M NaCl, 10 mM Tris-HCl (pH8.0), 1 mM EDTA). The microtiter plates were kept at room temperature for 30 min. Then, each well was washed twice with PBS and once with H2O.
Subsequently, in the each well prepared above were added 45 μl of the reaction buffer prepared from 12 μl of the buffer (composition: 150 mM MOPS (pH 7.2), 75 mM MnCl2, 50 mM 2-mercaptoethanol, 25% glycerol, 500 μg/ml bovine serum albumin-fraction V), 1 μl of target DNA (5 pmol/μl), and 32 μl of the distilled water. Additionally, 6 μl of either a test compound in DMSO or DMSO for positive control (PC) was mixed with the above reaction buffer, then 9 μl of an integrase solution (30 pmol) was added and mixed well. In the well of negative control (NC) was added 9 μl of the integrase dilution buffer (composition: Hepes (pH7.6), 400 mM potassium glutamate, 1 mM EDTA, 0.1% NP-40, 20% glycerol, 1 mM DTT, 4M urea).
The microtiter plates were incubated at 30° C. for 1 hour. The reaction solution was removed and each well was washed twice with PBS. Subsequently, each well of the microtiter plates was filled with 100 μl of anti-digoxigenin antibody labeled with alkaline phosphatase (Sheep Fab fragment: obtained from Boehringer) and incubated at 30° C. for 1 hour. Then, each well was washed twice with 0.05% Tween20 in PBS and once with PBS. Next, 150 μl of the Alkaline phosphatase reaction buffer (composition: 10 mM p-Nitrophenylphosphate (obtained from Vector Laboratories), 5 mM MgCl2, 100 mM NaCl, 100 mM Tris-HCl (pH 9.5)) was added in each well. The microtiter plates were incubated at 30° C. for 2 hours. The optical density (OD) at 405 nm of each well was measured and the percent inhibition was determined by the following expression. The percent inhibition (%)=100[1−{(C abs.−NC abs.)/(PC abs.−NC abs.)}] • C abs.; the OD of the well of the • NC abs.: the OD of the negative control (NC) • PC abs.: the OD of the positive control (PC)
When the percent inhibition (%) is X % at the concentration of x μg/ml and the percent inhibition (%) is Y % at the concentration of y μg/ml, one of which is more than 50% and the other is less than 50%, IC50 can be determined by the following expression. IC50(μg/ml)=x−{(X−50),(x−y)/(X−Y)}
Compound No. in the Table 1 is the same as compound No. of the above example.

SMILES	melting point	IC50 (integrase)
CN1CC(C(=O)c2occc2Cc2ccc(F)cc2)=C(O)C1=O [Compound A-50, 4-[3-(4-Fluorobenzyl)furan-2-carbonyl]-3-hydroxy-1-methyl-1,5-dihydropyrrole-2-one]	208 to 210 °C	507 nM
CC(C)Oc1cc(F)ccc1Cc1ccc(C(=O)C2=C(O)C(=O)N(C)C2)o1 [Compound A-141-k, 4-[5-(4-Fluoro-2-isopropoxybenzyl)furan-2-carbonyl]-3-hydroxy-1-methyl-1,5-dihydropyrrole-2-one]	126 to 129 °C	1820 nM
COC(C)(C)c1cc(Cc2ccc(F)cc2)c(C(=O)C2=C(O)C(=O)N(C)C2)o1 [Compound A-158, 4-[3-(4-Fluorobenzyl)-5-(1-methoxy-1-methylethyl)furan-2-carbonyl]-3-hydroxy-1-methyl-1,5-dihydropyrrole-2-one]	144 to 145 °C	1730 nM
CN1CC(c2cc(CCc3ccccc3)ncn2)=C(O)C1=O [Compound B-6-a, 3-Hydroxy-1-methyl-4-(6-phenethylpyrimidine-4-yl)-1,5-dihydropyrrole-2-one]	211 to 213 °C	5420 nM
O=C1C(O)=C(c2cc(CCc3ccccc3)ncn2)CN1C1CCCCC1 [Compound B-6-d, 1-Cyclohexyl-3-hydroxy-4-(6-phenethylpyrimidine-4-yl)-1,5-dihydropyrrole-2-one]	248 to 250 °C	6600 nM
CN1CC(c2cc(OCc3ccccc3)ncn2)=C(O)C1=O [Compound B-12, 4-(6-Benzyloxypyrimidine-4-yl)-3-hydroxy-1-methyl-1,5-dihydropyrrole-2-one]	203 to 204 °C	975 nM
CN1CC(c2ccc(Cc3ccc(F)cc3)cn2)=C(O)C1=O [Compound B-29, 4-[5-(4-Fluorobenzyl)-pyridine-2-yl]-3-hydroxy-1-methyl-1,5-dihydropyrrole-2-one]	204 to 206 °C	402 nM
CN1CC(c2ncc(OCc3ccc(F)cc3)cn2)=C(O)C1=O [Compound B-68, 4-[5-(4-fluorobenzyloxy)pyrimidine-2-yl]-3-hydroxy-1-methyl-1,5-dihydropyrrole-2-one]	185 to 187 °C	698 nM
O=c1c(O)c(-c2ccccn2)oc2cccc(OCc3ccc(F)cc3)c12 [Compound C-22, 5-[(4-fluorobenzyl)oxy]-3-hydroxy(2-pyridine-2-yl)-4H-1-benzopyrane-4-one]	213 °C	1320 nM
Cn1ncnc1-c1oc2cccc(OCc3ccc(F)cc3)c2c(=O)c1O [Compound C-39, 5-[(4-fluorobenzyl)oxy]-3-hydroxy-2-(2-methyl-2H-[1,2,4]triazole-3-yl)-4H-1-benzopyrane-4-one]	215 to 216 °C	626 nM
O=c1c(O)c(-c2nnc(Cc3ccc(F)cc3)o2)[nH]c2ccccc12 [Compound D-5, 2-[5-(4-fluorobenzyl)-[1,3,4]oxadiazole-2-yl]-3-hydroxy-1H-quinoline-4-one]	> 300 °C	1330 nM
O=C(c1ccc(Cc2ccc(F)cc2)o1)c1occc(=O)c1O [Compound E-8, 2-[5-(4-fluorobenzyl)furan-2-carbonyl]-3-hydroxypyrane-4-one]	157 to 159 °C	445 nM
Cc1cc(=O)c(O)c(C(=O)c2ccc(Cc3ccc(F)cc3)o2)o1 [Compound E-16, 2-[5-(4-fluorobenzyl)furan-2-carbonyl]-3-hydroxy-6-methylpyrane-4-one]	173 to 175 °C	366 nM
O=C1CCCC(C(=O)c2ccc(Cc3ccc(F)cc3)o2)=C1O [Compound F-4, 3-[5-(4-fluorobenzyl)furan-2-carbonyl]-2-hydroxy-2-cyclohexene-1-one]	133 to 134 °C	1810 nM
Cn1ccc(C(=O)c2ccc(Cc3ccc(F)cc3)o2)c(O)c1=O [Compound J-4, 4-[5-(4-fluorobenzyl)furan-2-carbonyl]-3-hydroxy-1-methyl-1H-pyridine-2-one]	145 to 147 °C	794 nM
Cn1ccc(-c2nnc(Cc3ccc(F)cc3)o2)c(O)c1=O [Compound K-4, 4-[5-(4-fluorobenzyl)-[1,3,4]oxadiazole-2-yl]-3-hydroxy-1-methyl-1H-pyridine-2-one]	216 to 218 °C	1890 nM
Cc1[nH]cc(C(=O)c2ccc(Cc3ccc(F)cc3)o2)c(=O)c1O [Compound M-6, 5-[5-(4-fluorobenzyl)furan-2-carbonyl]-3-hydroxy-2-methyl-1H-pyridine-4-one]	190 to 192 °C	8860 nM
